Key:
[1] = target: Recombinant human phosphodiesterase 10A (PDE10A) (Homo sapiens (Human), UniProt Q9Y233); assay: Assay of phosphodiesterase 10 inhibition in vitro (PDE-Glo luminescent method); type: biochemical; conditions: averaged IC50 values, read-out: hPDE10A1 IC50
Procedure: 1. Assay of Phosphodiesterase 10 Inhibition In Vitro
Recombinant human phosphodiesterase 10A (PDE10A) purified to homogeneity from Sf9 cells overexpressing PDE10A gene (GenBank/EMBL accession number: NM_001130690) was used for inhibition tests.
Inhibitory activity of the compounds towards PDE10A was tested using PDE-Glo (Promega Corporation, Madison, USA) luminescent method on 96-well plates. Test was performed for 8 concentrations of the compounds. Test compounds were dissolved in 100% DMSO and resulted solutions were diluted 5× in concentrated PDE-Glo Reaction Buffer. Eight concentrations of each tested compound were obtained by subsequent dilution. 5 μl of obtained solutions were added into the wells of 96-well plate. Next, 7.5 μl of a solution containing […] enzyme diluted in 1× concentrated PDE-Glo Reaction Buffer were added into the well to obtain the final amount of 2-10 ng (depending on the activity of the enzyme batch used in the study). In order to facilitate interaction between compounds and the enzyme, plates were incubated for 1 minute at room temperature and then 9 minutes at 4° C. Reaction was initiated by addition of 12.5 μl of 2 μM cAMP solution into the well and subsequently plate was incubated at 30° C.
After 40 minutes reaction was stopped by addition of 12.5 μl of PDE-Glo Termination Buffer with high concentration of a known PDE10 inhibitor. Plate content was stirred with orbital shaker at 500 RPMs for 10 minutes and then in the next step 12.5 μl of freshly prepared PDE-Glo Detection Solution were added into the well.
Plate was incubated for 20 minutes at room temperature before 50 μl of Kinase Glo reagent (Promega Corporation, Madison, USA) was applied into the wells and incubation at room temperature was continued for the next 10 minutes. After incubation, luminescence intensity in wells was measured with the Victor Light (Perkin Elmer Inc.) luminometer.
Percent of PDE10A inhibition by tested compounds was determined based on luminescence intensity measurements in wells containing test compounds and in control wells. Results were then fitted using a four-parameter logistic fit in GraphPad Prism 5.03 software (GraphPad Software Inc.). Negative control wells contained all above mentioned reagents except test compounds and positive control wells contained all above mentioned reagents except test compounds and the PDE10A enzyme. Each chemical compound was assayed in at least two independent runs (2×96-well plate in duplicate) with at least 3 wells of each of the controls.

[2] = Metabolic stability in rat liver microsomal fraction; type: in vitro ADME; conditions: liver microsomes, 37° C., phase I cofactors; for microsomal CLint: read-out: Cl(int)
Procedure: Tested compounds were incubated in triplicates with rat liver microsomal fraction at 37° C. in the presence of metabolic phase I cofactors (NADP, G6P, G6P dehydrogenase, MgCl2) necessary for metabolic transformations. Concentration of a non-metabolized tested compound in the reaction mixture was measured using LC/MS method at 4 time points: after 0, 20, 40 and 60 min of incubation. The AUC of compounds at those time points were compared with AUC at point 0 to obtain % loss of parental compound. The obtained data were used for calculation of internal clearance (Cl(int)) and half-life (T½). The metabolic activity of microsomes was assessed by measuring the stability of two standards with low and high metabolic stability, propranolol and donepezil, respectively.

Recombinant human phosphodiesterase 10A (PDE10A), sequence (Q9Y233 267-1055): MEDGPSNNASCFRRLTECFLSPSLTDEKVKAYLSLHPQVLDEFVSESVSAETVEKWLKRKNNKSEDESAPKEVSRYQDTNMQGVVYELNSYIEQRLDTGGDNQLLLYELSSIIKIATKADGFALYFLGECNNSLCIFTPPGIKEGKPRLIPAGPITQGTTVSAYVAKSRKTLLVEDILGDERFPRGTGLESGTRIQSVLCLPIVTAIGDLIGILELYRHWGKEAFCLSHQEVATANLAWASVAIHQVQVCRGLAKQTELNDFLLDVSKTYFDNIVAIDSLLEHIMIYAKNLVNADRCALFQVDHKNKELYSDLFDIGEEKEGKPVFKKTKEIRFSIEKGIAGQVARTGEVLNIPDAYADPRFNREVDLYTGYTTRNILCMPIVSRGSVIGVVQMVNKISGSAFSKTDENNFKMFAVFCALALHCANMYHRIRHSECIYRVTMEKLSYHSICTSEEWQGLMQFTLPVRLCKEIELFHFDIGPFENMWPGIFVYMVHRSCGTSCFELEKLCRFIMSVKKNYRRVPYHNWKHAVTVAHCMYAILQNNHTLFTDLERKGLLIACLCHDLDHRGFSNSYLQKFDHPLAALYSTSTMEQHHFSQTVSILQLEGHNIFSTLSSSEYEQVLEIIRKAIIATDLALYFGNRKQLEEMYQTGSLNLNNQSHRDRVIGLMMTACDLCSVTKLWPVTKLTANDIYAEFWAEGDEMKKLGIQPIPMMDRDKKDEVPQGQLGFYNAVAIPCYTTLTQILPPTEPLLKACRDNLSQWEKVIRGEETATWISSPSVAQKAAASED

Structure (SMILES) | IC50 [1] | half-life [2] | microsomal CLint [2]
Cc1cc(C)n2nc(-c3ccc4c(c3)nc(-c3ccccc3)n4C)nc2n1 [Example 48A, 5,7-Dimethyl-2-(1-methyl-2-phenyl-1H-benzo[d]imidazol-5-yl)-[1,2,4]-triazolo[1,5-a]pyrimidine] | 0.794 µM | – | –
Cc1cc(C)n2nc(-c3ccn4cc(-c5ccccc5)nc4n3)nc2n1 [Example 56, 5,7-Dimethyl-2-(2-phenylimidazo[1,2-a]pyrimidin-7-yl)[1,2,4]triazolo-[1,5-a]pyrimidine] | 0.096 µM | – | –
Cc1cc(C)n2nc(-c3ccc4[nH]c(-c5ccccn5)nc4c3)nc2n1 [Example 3, 5,7-Dimethyl-2-[2-(pyridin-2-yl)-1H-benzo[d]imidazol-5-yl]-[1,2,4]triazolo[1,5-a]pyrimidine] | 0.279 µM | – | –
Cc1ncc(C)n2nc(-c3ccn4cc(-c5ccccc5)nc4c3)nc12 [Ex. 1 of WO2013003298, reference compound] | – | 0.559 h | 68.9 µL/min/mg
Cc1ncc(C)n2nc(-c3ccc4[nH]c(-c5ccccc5F)nc4c3)nc12 [Example 2, 2-[2-(2-Fluorophenyl)-1H-benzo[d]imidazol-5-yl]-5,8-dimethyl-[1,2,4]-triazolo[1,5-a]pyrazine] | 0.037 µM | – | –
Cc1cc(C)n2nc(-c3ccc4nc(-c5ccccc5)n(C)c4c3)nc2n1 [Example 48B, 5,7-Dimethyl-2-(1-methyl-2-phenyl-1H-benzo[d]imidazol-6-yl)-[1,2,4]-triazolo[1,5-a]pyrimidine] | 0.413 µM | – | –
Cc1ncc(C)n2nc(-c3ccc4[nH]c(-c5nccs5)nc4c3)nc12 [Example 8, 5,8-Dimethyl-2-[2-(1,3-thiazol-2-yl)-1H-benzimidazol-5-yl][1,2,4]triazolo[1,5-a]pyrazine] | 0.084 µM | – | –
Cc1ncc(C)n2nc(-c3ccn4cc(-c5ccccc5)nc4n3)nc12 [Example 57, 5,8-Dimethyl-2-(2-phenylimidazo[1,2-a]pyrimidin-7-yl)[1,2,4]triazolo[1,5-a]pyrazine] | 0.0357 µM | 1.1 h | 34.9 µL/min/mg
Cc1ncc(C)n2nc(-c3ccc4[nH]c(-c5cccc(F)c5)nc4c3)nc12 [Example 6, 2-[2-(3-Fluorophenyl)-1H-benzimidazol-5-yl]-5,8-dimethyl[1,2,4]triazolo[1,5-a]pyrazine] | 0.172 µM | – | –
Cc1ncc(C)n2nc(-c3ccc4[nH]c(-c5ccc(F)cc5)nc4c3)nc12 [Example 7, 2-[2-(4-Fluorophenyl)-1H-benzimidazol-5-yl]-5,8-dimethyl[1,2,4]triazolo[1,5-a]pyrazine] | 0.054 µM | – | –
COc1ccccc1-c1nc2cc(-c3nc4c(C)ncc(C)n4n3)ccc2[nH]1 [Example 41, 2-[2-(2-Methoxyphenyl)-1H-benzimidazol-5-yl]-5,8-dimethyl[1,2,4]triazolo[1,5-a]-pyrazine] | 0.0195 µM | – | –
Cc1cc(C)n2nc(-c3ccc4[nH]c(-c5ccncc5)nc4c3)nc2n1 [Example 5, 5,7-Dimethyl-2-[2-(pyridin-4-yl)-1H-benzimidazol-5-yl][1,2,4]triazolo[1,5-a]pyrimidine] | 0.953 µM | – | –
Cc1ncc(C)n2nc(-c3ccc4[nH]c(-c5ccccn5)nc4c3)nc12 [Example 40, 5,8-Dimethyl-2-[2-(pyridin-2-yl)-1H-benzimidazol-5-yl][1,2,4]triazolo[1,5-a]pyrazine] | 0.063 µM | – | –
Cc1ncc(C)n2nc(-c3ccc4[nH]c(-c5ccccc5)nc4c3)nc12 [Example 4, 5,8-Dimethyl-2-(2-phenyl-1H-benzimidazol-5-yl)[1,2,4]triazolo[1,5-a]pyrazine] | 0.027 µM | 1.05 h | 36.8 µL/min/mg
Cc1cc(C)n2nc(-c3ccc4[nH]c(-c5ccccc5)nc4c3)nc2n1 [Example 1, 5,7-Dimethyl-2-(2-phenyl-1H-benzo[d]imidazol-5-yl)-[1,2,4]triazolo-[1,5-a]pyrimidine] | 0.047 µM | – | –

Source: US10138245B2, “Fused triazole derivatives as phosphodiesterase 10A inhibitors” (Celon Pharma S.A., priority 2014, dated 2018)
